# Patent publication US9750738B2, “Arylpiperazine opioid receptor antagonists” (RESEARCH TRIANGLE INSTITUTE, priority 2010, dated 2017)
# How the values were obtained:
# [1] = molecular target: T1, cloned human μ opioid receptor (Homo sapiens, UniProt P35372); experiment: Inhibition of DAMGO-stimulated [35S]GTPγS binding; format: biochemical; details: antagonism of agonist DAMGO; for Kb: read-out: μ, DAMGO Ke
# T1 construct: expressed in transfected cells
# [2] = molecular target: T2, cloned human κ opioid receptor (Homo sapiens, UniProt P41145); experiment: Inhibition of U69,593-stimulated [35S]GTPγS binding; format: biochemical; details: antagonism of agonist U69,593, [35S]GTPγS binding; for Kb: read-out: κ, U69,593 ke
# T2 construct: expressed in transfected cells
# [3] = molecular target: T3, cloned human δ opioid receptor (Homo sapiens, UniProt P41143); experiment: Inhibition of DPDPE-stimulated [35S]GTPγS binding; format: biochemical; details: antagonism of agonist DPDPE; for Kb: read-out: δ, DPDPE Ke
# T3 construct: expressed in transfected cells
# T3 sequence (P41143 whole entry): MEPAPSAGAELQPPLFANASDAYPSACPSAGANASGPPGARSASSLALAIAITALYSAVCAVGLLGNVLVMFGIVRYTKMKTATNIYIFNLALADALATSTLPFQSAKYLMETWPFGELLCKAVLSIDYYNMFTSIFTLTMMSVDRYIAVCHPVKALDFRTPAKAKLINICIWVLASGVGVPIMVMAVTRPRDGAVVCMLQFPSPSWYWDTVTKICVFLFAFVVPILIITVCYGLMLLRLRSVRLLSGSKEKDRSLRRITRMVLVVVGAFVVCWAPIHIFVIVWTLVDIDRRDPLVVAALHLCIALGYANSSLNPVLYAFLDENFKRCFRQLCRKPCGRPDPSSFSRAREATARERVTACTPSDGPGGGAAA
# T2 sequence (P41145 whole entry): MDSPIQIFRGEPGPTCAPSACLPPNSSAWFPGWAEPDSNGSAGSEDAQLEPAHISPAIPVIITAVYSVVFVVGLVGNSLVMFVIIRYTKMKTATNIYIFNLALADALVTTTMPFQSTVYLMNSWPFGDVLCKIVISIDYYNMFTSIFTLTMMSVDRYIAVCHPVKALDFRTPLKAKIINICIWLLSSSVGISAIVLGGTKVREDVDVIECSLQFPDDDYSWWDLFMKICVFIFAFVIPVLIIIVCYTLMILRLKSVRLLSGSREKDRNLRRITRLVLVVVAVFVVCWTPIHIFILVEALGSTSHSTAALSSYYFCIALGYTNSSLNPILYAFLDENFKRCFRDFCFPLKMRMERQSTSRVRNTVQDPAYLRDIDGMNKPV
# T1 sequence (P35372 whole entry): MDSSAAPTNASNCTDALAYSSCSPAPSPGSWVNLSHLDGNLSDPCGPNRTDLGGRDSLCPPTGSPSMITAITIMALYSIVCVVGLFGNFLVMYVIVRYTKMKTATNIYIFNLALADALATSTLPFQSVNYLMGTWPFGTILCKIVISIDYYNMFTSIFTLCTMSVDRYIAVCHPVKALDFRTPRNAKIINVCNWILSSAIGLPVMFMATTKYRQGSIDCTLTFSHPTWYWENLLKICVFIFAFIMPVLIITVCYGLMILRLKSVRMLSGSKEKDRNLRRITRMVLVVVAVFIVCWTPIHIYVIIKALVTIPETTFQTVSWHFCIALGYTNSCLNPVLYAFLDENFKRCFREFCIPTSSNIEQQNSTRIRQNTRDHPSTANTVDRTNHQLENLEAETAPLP
SMILES,Kb [1] [nM],Kb [2] [nM],Kb [3] [nM],other results
"C[C@@H]1CN(c2cccc(O)c2)[C@@H](C)CN1CCCc1ccccc1 [Compound 5g, 3-((2S,5R)-2,5-Dimethyl-4-(3-phenylpropyl)piperazin-1-yl)phenol]",6.1 ± 1.7,4.2 ± 0.8,55 ± 3,
"CC(C)[C@@H](CN1CCN(c2cccc(O)c2)[C@@H](C)C1)NC(=O)[C@H]1Cc2ccc(O)cc2CN1 [Compound 5j, (3R)-7-Hydroxy-N-[(1S)-1-{[(3S)-4-(3-hydroxyphenyl)-3-methylpiperazin-1-yl]methyl}-2-methylpropyl]-1,2,3,4-tetrahydroisoquinoline-3-carboxamide]",22 ± 4,2.7 ± 0.1,274 ± 48,
"CC1CN(CCCc2ccccc2)CC(C)N1c1cccc(O)c1 (stereo not shown) [Compound 5d, (Z)-3-(2,6-Dimethyl-4-(3-phenylpropyl)piperazin-1-yl)phenol]",,3,4300,
"C[C@@H]1CN(CCCc2ccccc2)CCN1c1cccc(O)c1 [Compound 5c, (R)-3-(2-Methyl-4-phenylpropylpiperazin-1-yl)phenol]",1 ± 0.2,1.5 ± 0.4,7 ± 2,
"C[C@H]1CN(C)CC[C@@]1(C)c1cccc(O)c1 [Compound 2b, reference compound]",,,,"μ, DAMGO Ke [1]: 29 ± 3 nM; κ, U69,593 ke [2]: 155 ± 24 nM; δ, DPDPE Ke [3]: 680 ± 240 nM"
CCC1CN(CCCc2ccccc2)CCN1c1cccc(O)c1.Cl.Cl (stereo not shown),,,,melting point: 161 to 166 °C
"C[C@H]1CN(C)CCN1c1cccc(O)c1 [Compound 5f, (S)-3-(2,4-Dimethylpiperazin-1-yl)phenol]",508 ± 26,193 ± 19,,
"CC(C)[C@H](N)CN1CCN(c2cccc(O)c2)[C@@H](C)C1 [Compound 5i, 3-{(2S)-4-[(2S)-2-Amino-3-methylbutyl]-2-methylpiperazin-1-yl}phenol]",2,10,55,
"C[C@@H]1CN(CCCc2ccccc2)[C@@H](C)CN1c1cccc(O)c1 [Compound 5h, 3-((2R,5S)-2,5-Dimethyl-4-(3-phenylpropyl)piperazin-1-yl)phenol]",18 ± 4,26 ± 7,179 ± 68,
"C[C@@H](N)CN1CCN(c2cccc(O)c2)[C@@H](C)C1 [Compound 31b, 3-{(2S)-4-[(2R)-2-amino-propyl]-2-methylpiperazin-1-yl}phenol]",,,,melting point: 210 to 215 °C
"CC1CN(CCCc2ccccc2)CCC1(C)c1cccc(O)c1 (stereo not shown) [Compound 2c, N-phenylpropyl 3,4-dimethyl-4-(3-hydroxyphenyl)piperidine, reference compound]",0.1 ± 0.02,0.88 ± 0.2,0.9 ± 0.3,
"Oc1cccc(N2CCN(CCCc3ccccc3)CC2)c1 [Compound 5a, 3-(4-Phenylpropylpiperazin-1-yl)phenol]",8.5 ± 1.4,15 ± 3,34 ± 6,
"C[C@H]1CN(c2cccc(O)c2)[C@@H](C)CN1CCCc1ccccc1 [Compound 5e, 3-[(2S,5S)-2,5-Dimethyl-4-(3-phenylpropyl)piperazin-1-yl]phenol]",,7 ± 0.3,,
"C[C@H]1CN(CCCc2ccccc2)CCN1c1cccc(O)c1 [Compound 5b, (S)-3-(2-Methyl-4-phenylpropylpiperazin-1-yl)phenol]",0.88,4.09,13.4,
